Assay results as given in US20220039384A1, “SELECTIVE WEED CONTROL WITH HALAUXIFEN OR 4-AMINO-3-CHLORO-5-FLUORO-6-(4-CHLORO-2-FLUORO-3-METHOXYPHENYL) PYRIDINE-2-CARBOXYLIC ACID OR DERIVATIVES THEREOF IN VINEYARDS OR PERENNIAL CROPS” (Corteva Agriscience LLC, priority 2013, published 2022).

Columns and labels:
Format in all cases: in vivo
[1] = test system: MALPA (Malva parviflora, smallflower malva); test: Field trial, post-emergence directed spring application (April), California vineyards: visual weed control
Excerpt: (§1) As used herein, selective pre- and post-emergence control of undesirable vegetation means preventing, reducing, killing, or otherwise adversely modifying the development of the undesirable vegetation in the presence of crop plants with limited adverse effect on the crop plants. For example, a broadleaf weed control of 80% (rated visually) with crop injury of less than or equal to 20% (rated visually) would constitute selective control. In some embodiments the adverse effect on crop plants is limited to less than 10% visually rated crop injury. Visual crop injury is a composite rating accounting for all phytotoxic effects including chlorosis, necrosis, growth inhibition, epinasty, delays in maturity and seed or fruit deformity. Visual weed control is a composite rating accounting for reductions in pest plant biomass and/or stand reduction.
(§2) Small plot research experiments were conducted in Fresno, Calif., USA to evaluate the pre-emergence and post-emergence herbicidal weed control activity and the vines crop tolerance to pre-emergence and post-emergence application of Compound I and Compound II to the weeds. Application water volume of 100 to 187 liters per hectare (L/ha) was used for all experiments. All treatments were applied with a standard small plot carbon dioxide (CO2) backpack sprayer. All treatments were tank-mixed with Crop Oil Concentrate (COC), a well known adjuvant, at 2.34 L/ha. Experimental emulsifiable concentrate (EC) formulations were used for Compounds I and II. The dimethylammonium (DMA) salt of glyphosate was used in all trials. Pindar® GT is a commercial formulation containing a pre-mix of penoxsulam+oxyfluorfen (10+476 grams of active ingredient per liter (g ai/L), respectively). Vine crop stage was dormant (no leaves on the vines during the winter) or early spring growth at the time of Compound I or Compound II application. Generally, weeds were not emerged for the pre-emergence treatments or were at the two to six-leaf stage at the time of the post-emergence herbicide application.
(§3) Tables 1, 2 and 6 provide weed control results from pre-emergence applications of Compounds I and/or II prior to weed emergence; Tables 4, 7 and 8 provide weed control results from post-emergence applications of Compounds I and/or II applied to actively growing weeds; Tables 3 and 5 provide vine response data from pre-emergence and post-emergence applications of Compound I respectively.

[2] = test system: SETFA (Setaria faberi, giant foxtail); test: as above
Excerpt: as §1, §2, §3

[3] = test system: ERIBO (Conyza bonariensis, hairy fleabane); test: as above
Excerpt: as §1, §2, §3

[4] = test system: EROCI (Erodium cicutarium, redstem filaree); test: as above
Excerpt: as §1, §2, §3

[5] = test system: AGRRE (Agropyron repens, quackgrass); test: as above
Excerpt: as §1, §2, §3

[6] = test system: PANCA (Panicum capillare, witchgrass); test: as above
Excerpt: as §1, §2, §3

[7] = test system: CAPBP (Capsella bursa-pastoris, Shepherd's purse); test: Field trial, pre-emergence application (February), California vineyards: visual weed control
Excerpt: as §1, §2, §3

[8] = test system: AMSIN (Amsinckia intermedia, coast fiddleneck); test: as above
Excerpt: as §1, §2, §3

[9] = test system: CLNCM (Calandrinia ciliata, rock purslane); test: as above
Excerpt: as §1, §2, §3

[10] = test system: EROCI (Erodium cicutarium, redstem filaree); test: Field trial, pre-emergence dormant application (December), California vineyards: visual weed control; details: applied prior to weed emergence
Excerpt: as §1, §2, §3

[11] = test system: POAAN (Poa annua, annual bluegrass); test: as above; details: applied prior to weed emergence
Excerpt: as §1, §2, §3

[12] = test system: PANCA (Panicum capillare, witchgrass); test: as above; details: applied prior to weed emergence
Excerpt: as §1, §2, §3

[13] = test system: AMARE (Amaranthus retroflexus, redroot pigweed); test: Field trial, post-emergence directed dormant application (December), California vineyards: visual weed control
Excerpt: as §1, §2, §3

[14] = test system: CHEAL (Chenopodium album, common lambsquarters); test: as above
Excerpt: as §1, §2, §3

[15] = test system: CAPBP (Capsella bursa-pastoris, Shepherd's purse); test: as above
Excerpt: as §1, §2, §3

[16] = test system: IPOSS (Ipomoea spp, morningglory); test: as above
Excerpt: as §1, §2, §3

[17] = test system: AMSIN (Amsinckia intermedia, coast fiddleneck); test: as above
Excerpt: as §1, §2, §3

VITSS (Vitis spp, grape) = test: Field trial, soil-applied dormant application (December), California vineyards: vine injury and growth response; details: applied to the soil
Excerpt: as §1, §2, §3

COC(=O)c1nc(-c2ccc(Cl)c(OC)c2F)cc(N)c1Cl [I—Me, methyl 4-amino-3-chloro-6-(4-chloro-2-fluoro-3-methoxyphenyl)pyridine-2-carboxylate]
% Visual Control 60 DAA MALPA ([1]; 5 g ae/ha): 75%
% Visual Control 60 DAA MALPA ([1]; 10 g ae/ha): 72%
% Visual Control 60 DAA MALPA ([1]; 20 g ae/ha): 73%
% Visual Control 60 DAA SETFA ([2]; 5 g ae/ha): 98%
% Visual Control 60 DAA SETFA ([2]; 10 g ae/ha): 80%
% Visual Control 60 DAA SETFA ([2]; 20 g ae/ha): 97%
% Visual Control 60 DAA ERIBO ([3]; 5 g ae/ha): 97%
% Visual Control 60 DAA ERIBO ([3]; 10 g ae/ha): 95%
% Visual Control 60 DAA ERIBO ([3]; 20 g ae/ha): 93%
% Visual Control 60 DAA EROCI ([4]; 5 g ae/ha): 62%
% Visual Control 60 DAA EROCI ([4]; 10 g ae/ha): 70%
% Visual Control 60 DAA EROCI ([4]; 20 g ae/ha): 86%
% Visual Control 60 DAA AGRRE ([5]; 5 g ae/ha): 87%
% Visual Control 60 DAA AGRRE ([5]; 10 g ae/ha): 80%
% Visual Control 60 DAA AGRRE ([5]; 20 g ae/ha): 83%
% Visual Control 60 DAA PANCA ([6]; 5 g ae/ha): 82%
% Visual Control 60 DAA PANCA ([6]; 10 g ae/ha): 88%
% Visual Control 60 DAA PANCA ([6]; 20 g ae/ha): 86%
% Visual Control 48 DAA CAPBP ([7]; 2.5 g ae/ha): 50%
% Visual Control 48 DAA CAPBP ([7]; 5 g ae/ha): 76.7%
% Visual Control 48 DAA CAPBP ([7]; 10 g ae/ha): 90%
% Visual Control 48 DAA AMSIN ([8]; 2.5 g ae/ha): 25%
% Visual Control 48 DAA AMSIN ([8]; 5 g ae/ha): 43.3%
% Visual Control 48 DAA AMSIN ([8]; 10 g ae/ha): 36.7%
% Visual Control 48 DAA CLNCM ([9]; 2.5 g ae/ha): 27.6%
% Visual Control 48 DAA CLNCM ([9]; 5 g ae/ha): 43.3%
% Visual Control 48 DAA CLNCM ([9]; 10 g ae/ha): 86.7%
% Visual Control 90 DAA EROCI ([10]; 10 g ae/ha): 58%
% Visual Control 184 DAA EROCI ([10]; 10 g ae/ha): 47%
% Visual Control 90 DAA EROCI ([10]; 20 g ae/ha): 72%
% Visual Control 184 DAA EROCI ([10]; 20 g ae/ha): 52%
% Visual Control 90 DAA EROCI ([10]; 40 g ae/ha): 82%
% Visual Control 184 DAA EROCI ([10]; 40 g ae/ha): 55%
% Visual Control 90 DAA POAAN ([11]; 10 g ae/ha): 58%
% Visual Control 184 DAA POAAN ([11]; 10 g ae/ha): 48%
% Visual Control 90 DAA POAAN ([11]; 20 g ae/ha): 65%
% Visual Control 184 DAA POAAN ([11]; 20 g ae/ha): 28%
% Visual Control 90 DAA POAAN ([11]; 40 g ae/ha): 63%
% Visual Control 184 DAA POAAN ([11]; 40 g ae/ha): 47%
% Visual Control 184 DAA PANCA ([12]; 10 g ae/ha): 60%
% Visual Control 184 DAA PANCA ([12]; 20 g ae/ha): 33.3%
% Visual Control 184 DAA PANCA ([12]; 40 g ae/ha): 63.3%
% Visual Control 57 DAA AMARE ([13]; 2.5 g ae/ha): 95%
% Visual Control 57 DAA AMARE ([13]; 5 g ae/ha): 96.7%
% Visual Control 57 DAA AMARE ([13]; 10 g ae/ha): 100%
% Visual Control 57 DAA CHEAL ([14]; 2.5 g ae/ha): 100%
% Visual Control 57 DAA CHEAL ([14]; 5 g ae/ha): 96.7%
% Visual Control 57 DAA CHEAL ([14]; 10 g ae/ha): 100%
% Visual Control 57 DAA CAPBP ([15]; 2.5 g ae/ha): 91.7%
% Visual Control 57 DAA CAPBP ([15]; 5 g ae/ha): 99.3%
% Visual Control 57 DAA CAPBP ([15]; 10 g ae/ha): 100%
% Visual Control 57 DAA IPOSS ([16]; 2.5 g ae/ha): 57.8%
% Visual Control 57 DAA IPOSS ([16]; 5 g ae/ha): 65%
% Visual Control 57 DAA IPOSS ([16]; 10 g ae/ha): 66.7%
% Visual Control 57 DAA AMSIN ([17]; 2.5 g ae/ha): 38.3%
% Visual Control 57 DAA AMSIN ([17]; 5 g ae/ha): 76.7%
% Visual Control 57 DAA AMSIN ([17]; 10 g ae/ha): 97.3%
VITSS % Visual Injury 124 DAA (VITSS (Vitis spp, grape); 10 g ae/ha): 0%
VITSS % Visual Injury 184 DAA (VITSS (Vitis spp, grape); 10 g ae/ha): 15%
VITSS Branch Length (cm) 184 DAA (VITSS (Vitis spp, grape); 10 g ae/ha): 187 cm
VITSS Internode Length (cm) 184 DAA (VITSS (Vitis spp, grape); 10 g ae/ha): 7 cm
VITSS Yield (Lbs) 236 DAA (VITSS (Vitis spp, grape); 10 g ae/ha): 71 Lbs
VITSS % Visual Injury 124 DAA (VITSS (Vitis spp, grape); 20 g ae/ha): 0%
VITSS % Visual Injury 184 DAA (VITSS (Vitis spp, grape); 20 g ae/ha): 18%
VITSS Branch Length (cm) 184 DAA (VITSS (Vitis spp, grape); 20 g ae/ha): 172 cm
VITSS Internode Length (cm) 184 DAA (VITSS (Vitis spp, grape); 20 g ae/ha): 7 cm
VITSS Yield (Lbs) 236 DAA (VITSS (Vitis spp, grape); 20 g ae/ha): 63 Lbs
VITSS % Visual Injury 124 DAA (VITSS (Vitis spp, grape); 40 g ae/ha): 0%
VITSS % Visual Injury 184 DAA (VITSS (Vitis spp, grape); 40 g ae/ha): 37%
VITSS Branch Length (cm) 184 DAA (VITSS (Vitis spp, grape); 40 g ae/ha): 125 cm
VITSS Internode Length (cm) 184 DAA (VITSS (Vitis spp, grape); 40 g ae/ha): 6 cm
VITSS Yield (Lbs) 236 DAA (VITSS (Vitis spp, grape); 40 g ae/ha): 31 Lbs
